Reference: patent publication US10294243B2, “Bicyclic compounds as pesticides” (BAYER CROPSCIENCE AKTIENGESELLSCHAFT, priority 2014, dated 2019)
Where two headings read alike, the source gives them in different places.

Experiments:
[1] = test system: Myzus persicae; assay: Myzus persicae - spray test (bell pepper plants); assay type: in vivo; conditions: application rate 4 ppm, after 6 days
Description: Myzus persicae—Spray Test Solvent: 7 parts by weight of dimethylformamide Emulsifier: alkylaryl polyglycol ether […] […] If the addition of ammonium salts or/and penetrants is required, these are each added in a concentration of 1000 ppm to the preparation solution. Bell pepper plants (Capsicum annuum) severely infested with the green peach aphid (Myzus persicae) are treated by spraying with the active compound preparation in the desired concentration.

[2] = log P by HPLC on reversed-phase C18 columns (OECD Guideline 117); method [a] acidic pH 2.7, method [b] neutral pH 7.8; assay type: physicochemical; conditions: for chromatographic logP: reversed-phase C18 HPLC column
[3] = test system: Tetranychus urticae; assay: Tetranychus urticae - spray test, OP-resistant; assay type: in vivo; conditions: application rate 500 g/ha, bean leaf discs, after 6 days
Description: Tetranychus urticae—Spray Test, OP-Resistant
(§1) Emulsifier: alkylaryl polyglycol ether
After 6 days, the efficacy in % is determined. 100% means that all the spider mites have been killed; 0% means that none of the spider mites have been killed.

[4] = test system: Phaedon cochleariae; assay: Phaedon cochleariae - spray test; assay type: in vivo; conditions: application rate 500 g/ha, Chinese cabbage leaf discs, after 7 days
From the text: Phaedon cochleariae—Spray Test
as §1

[5] = test system: Spodoptera frugiperda; conditions: application rate 500 g/ha, maize leaf discs, after 7 days
Description: Spodoptera frugiperda—Spray Test
Solvent: 78.0 parts by weight of acetone • • 1.5 parts by weight of dimethylformamide
as §1
(§2) To produce further test concentrations, the preparation is diluted with emulsifier-containing water.
After 7 days, the efficacy in % is determined 100% means that all the caterpillars have been killed; 0% means that no caterpillars have been killed.

[6] = test system: Myzus persicae; assay: Myzus persicae - spray test (Chinese cabbage leaf discs); assay type: in vivo; conditions: application rate 500 g/ha, after 6 days; for pest or weed control at 500 g/ha: Myzus persicae, foliar, 144 h, read-out: efficacy (aphids killed)
Description: Myzus persicae—Spray Test
Solvent: 78 parts by weight of acetone • • 1.5 parts by weight of dimethylformamide
as §1, §2
After 6 days, the efficacy in % is determined 100% means that all the aphids have been killed; 0% means that none of the aphids have been killed.

[7] = test system: Boophilus microplus; assay: Boophilus microplus - injection test; assay type: in vivo; conditions: application rate 20 μg/animal, injection into engorged adult female cattle ticks, assessed after 7 days
Description: Boophilus microplus—Injection Test
Solvent: dimethyl sulphoxide
To produce a suitable preparation of active compound, 10 mg of active compound are mixed with 0.5 ml of solvent and the concentrate is diluted with solvent to the desired concentration.
1 μl of the active compound solution is injected into the abdomen of 5 engorged adult female cattle ticks (Boophilus microplus). The animals are transferred into dishes and kept in a climate-controlled room.
Efficacy is assessed after 7 days by laying of fertile eggs. Eggs which are not visibly fertile are stored in a climate-controlled cabinet until the larvae hatch after about 42 days. An efficacy of 100% means that none of the ticks has laid any fertile eggs; 0% means that all the eggs are fertile.

[8] = test system: Meloidogyne incognita; assay: Meloidogyne incognita test; assay type: in vivo; conditions: application rate 20 ppm, lettuce, after 14 days
Description: Meloidogyne Incognita Test
Solvent: 125.0 parts by weight of acetone
Vessels are filled with sand, active compound solution, an egg/larvae suspension of the southern root-knot nematode (Meloidogyne incognita) and lettuce seeds. The lettuce seeds germinate and the plants develop. The galls develop on the roots.
After 14 days, the nematicidal efficacy in % is determined by the formation of galls. 100% means that no galls were found; 0% means that the number of galls on the treated plants corresponds to the untreated control.

[9] = HPLC reversed-phase C18, method [a] acidic pH 2.7, read-out: logP[a]
[10] = HPLC reversed-phase C18, method [b] neutral pH 7.8, read-out: logP[b]
[11] = HPLC reversed-phase C18, method [a] acidic pH 2.7
[12] = HPLC reversed-phase C18, method [b] neutral pH 7.8

| SMILES | chromatographic logP [2, 9] | chromatographic logP [2, 10] | logP[a] [2, 11] | logP[b] [2, 12] | pest or weed control at 500 g/ha [6] | other results |
| --- | --- | --- | --- | --- | --- | --- |
| COc1cccc(-n2cnc3nc(-c4cccnc4)sc3c2=O)c1 [Compound 10, 6-(3-Methoxyphenyl)-2-(pyridin-3-yl)[1,3]thiazolo[4,5-d]pyrimidin-7(6H)-one] | 1.73 | 1.76 |  |  |  | efficacy (kill of aphids) [1]: 96% |
| Cc1ccc(-n2cnc3nc(-c4cccnc4)sc3c2=O)cc1 [Compound 11] |  |  | 1.92 | 1.96 |  | efficacy (spider mites killed) [3]: 90%; efficacy (beetle larvae killed) [4]: 100%; efficacy (caterpillars killed) [5]: 100% |
| Cn1ccc(Cn2cnc3nc(-c4cccnc4)sc3c2=O)n1 [Compound 37] |  |  | 0.97 | 1.08 |  | efficacy (beetle larvae killed) [4]: 100%; efficacy (caterpillars killed) [5]: 100%; efficacy (aphids killed) [6]: 90% |
| O=c1c2sc(-c3cccnc3)nc2ncn1-c1cc(SCC2CC2)ccc1F [Compound 44] |  |  | 2.91 | 3.00 |  | efficacy (kill of aphids) [1]: 100% |
| O=c1c2sc(-c3cccnc3)nc2ncn1-c1ccc([S+]([O-])C(F)(F)F)cc1 (centres unmarked) [Compound 63, 2-(Pyridin-3-yl)-6-{4-[(trifluoromethyl)sulphinyl]phenyl}[1,3]thiazolo[4,5-d]pyrimidin-7(6H)-one] | 2.03 | 1.99 |  |  | 90% | nematicidal efficacy (formation of galls) [8]: 90% |
| Cc1cc(C)c([S+]([O-])CC(F)(F)F)cc1-n1cnc2nc(-c3cncc(F)c3)sc2c1=O (centres unmarked) [Compound 72] |  |  | 2.35 | 2.29 |  | efficacy (aphids killed) [6]: 90% |
| Cc1cc(C)c(-n2cnc3nc(-c4cncnc4)sc3c2=O)cc1SCC(F)(F)F [Compound 76, 6-{2,4-Dimethyl-5-[(2,2,2-trifluoroethyl)sulphanyl]phenyl}-2-(pyrimidin-5-yl)[1,3]thiazolo[4,5-d]pyrimidin-7(6H)-one] | 2.88 | 2.77 |  |  | 90% |  |
| Cc1cc(F)c(-n2cnc3nc(-c4cncnc4)sc3c2=O)cc1SCC(F)(F)F [Compound 78] |  |  | 2.73 | 2.65 |  | efficacy (aphids killed) [6]: 90% |
| CC(c1ncnn1C)n1cnc2nc(-c3cccnc3)sc2c1=O (centres unmarked) [Compound 86] |  |  | 1.01 | 1.07 |  | efficacy (aphids killed) [6]: 90% |

Second part, led by results:

| chromatographic logP [2, 9] | chromatographic logP [2, 10] | SMILES | logP[a] [2, 11] | logP[b] [2, 12] | pest or weed control at 500 g/ha [6] | other results |
| --- | --- | --- | --- | --- | --- | --- |
| 2.25 | 2.05 | Cc1cc(F)c(-n2c(C)nc3nc(-c4cccnc4)sc3c2=O)cc1[S+]([O-])CC(F)(F)F (centres unmarked) [Compound 57, 6-{2-Fluoro-4-methyl-5-[(2,2,2-trifluoroethyl)sulphinyl]phenyl}-5-methyl-2-(pyridin-3-yl)[1,3]thiazolo[4,5-d]pyrimidin-7(6H)-one] |  |  | 100% | efficacy (spider mites killed) [3]: 90%; efficacy (laying of fertile eggs) [7]: 100% |
| 2.71 | 2.69 | O=c1c2sc(-c3cccnc3)nc2ncn1-c1ccc(SC(F)(F)F)cc1 [Compound 62, 2-(Pyridin-3-yl)-6-{4-[(trifluoromethyl)sulphanyl]phenyl}[1,3]thiazolo[4,5-d]pyrimidin-7(6H)-one] |  |  | 90% | efficacy (beetle larvae killed) [4]: 100% |
| 3.36 | 3.25 | Cc1cc(F)c(-n2cnc3nc(-c4cncc(F)c4)sc3c2=O)cc1SCC(F)(F)F [Compound 73, 6-{2-Fluoro-4-methyl-5-[(2,2,2-trifluoroethyl)sulphanyl]phenyl}-2-(5-fluoropyridin-3-yl)[1,3]thiazolo[4,5-d]pyrimidin-7(6H)-one] |  |  | 90% |  |
| 2.34 | 2.26 | Cc1cc(F)c(-n2cnc3nc(-c4cncc(F)c4)sc3c2=O)cc1[S+]([O-])CC(F)(F)F (centres unmarked) [Compound 74, 6-{2-Fluoro-4-methyl-5-[(2,2,2-trifluoroethyl)sulphinyl]phenyl}-2-(5-fluoropyridin-3-yl)[1,3]thiazolo[4,5-d]pyrimidin-7(6H)-one] |  |  | 90% |  |
| 1.84 | 1.82 | Cc1cc(C)c([S+]([O-])CC(F)(F)F)cc1-n1cnc2nc(-c3cncnc3)sc2c1=O (centres unmarked) [Compound 77, 6-{2,4-Dimethyl-5-[(2,2,2-trifluoroethyl)sulphinyl]phenyl}-2-(pyrimidin-5-yl)[1,3]thiazolo[4,5-d]pyrimidin-7(6H)-one] |  |  | 100% |  |
